The NIST ThermoML archive (doi:10.1021/je300953u)
± gives the expanded uncertainty stated by the source.

Assay: mn = molality of the nth substance listed, in mol/kg
Conditions: 101 kPa, Liquid, Vibrating tube method

mass density (298.15 K, m1 = 0.025): 998.38 ± 0.29 kg/m3
mass density (298.15 K, m1 = 0.055): 999.96 ± 0.29 kg/m3
mass density (308.15 K, m1 = 0.025): 995.33 ± 0.29 kg/m3
mass density (308.15 K, m1 = 0.055): 996.89 ± 0.29 kg/m3
SMILES: CCn1cc[n+](C)c1.[Br-] [1-ethyl-3-methylimidazolium bromide] + O
